# Read-outs that look alike come from different tables or passages of the source. Marks after values point to notes of the source that are not given here.
# Assays:
# [1] = test system: mixed culture of slime-forming-bacteria which had been isolated from a paper machine; assay: Formation of biofilm on stainless steel coupons in a model system (viable counts in medium and on coupons); type: cell-based
# Protocol: Formation of biofilm on stainless steel coupons in the presence or absence of an oxidizing biocide or a biofilm inhibiting substance was evaluated in the laboratory. The test system consisted of (a) three closed flasks each containing 20 L nutrient-rich medium (diluted three-fold from its recommended use concentration), (b) three closed cells containing stainless steel coupons hanging freely, and (c) three identical circulation pumps, each pump connected via plastic pipes to one of the flasks and to one of the cells. The system was placed in a thermostatic room at 35° C.
# An innoculum containing a mixed culture of slime-forming-bacteria which had been isolated from a paper machine was added to each of the flasks. An oxidizer containing a 5 ppm mixture (expressed as total Cl2) of bromochlorodimethylhydantoin (an oxidizing biocide which is a source of HOBr and HOCl) (hereinafter “mixed halogens”) was added to the first flask once a day for the duration of the trial (4 days). […] The third flask served as a control for the two flasks treated with the oxidizing biocide or biofilm inhibiting substances. […] A diluted solution of sodium hypochlorite in deionized (DI) water (˜8000 ppm as total chlorine) was fed with one pump; a diluted solution of ammonium bromide (12500 ppm) was fed with the second pump. The two diluted solutions were synchronously mixed in a short glass pipe to form a pre-injection solution of biofilm inhibiting substance, using a pH meter to control and check the stability of the biofilm inhibiting substance formed. The biofilm inhibiting substance was fed to the test system immediately as it was produced.
# On days 2 and 4, each closed cell was opened and 2 coupons were aseptically removed from each cell. At the same time samples of the circulating medium were taken as well. Sampling was conducted after feeding the daily slug dose of biocide.
# Each sample of medium was serially 10-fold diluted in sterile saline solution and plated in molten agar. Each coupon was thoroughly rinsed to remove any adhered particles, aseptically scraped, and the material removed by scraping was quantitatively dispersed in saline solution, vortexed, serially 10-fold diluted and plated in molten agar. Viable counts of microorganisms were taken after 48 h of incubation at 35° C. Viable counts of cells in the medium are presented as colony forming units (cfu) per ml; viable counts on the coupon surfaces are presented as cfu/cm^2.
# catalase (Merck) = assay: Inactivation of catalase, residual H2O2 laboratory test; type: biochemical
# Protocol: Freshly prepared biofilm inhibiting substance was added to the appropriate flasks containing diluted catalase at a pre-defined feed rate. The contents of the containers were mixed for 60 minutes at room temperature prior to addition of H2O2 (to a final H2O2 concentration of 3.5 g/l). After addition of the H2O2, the mixture was allowed to mix for 30 minutes at room temperature, at which point H2O2 residues were measured in each flask in accordance with the Dr. Lange Cuvette Test LCW 058, measured with LASA 20 (based on Jander/Blasius: Lehrbach der Analytischen and Praparative Anorganischen Chemie, as described in the Handbook of Photometrical Operation Analysis (October 1997)).
# Sodium hypochlorite was diluted in DI water to a final concentration of 6000 ppm expressed as total chlorine. Ammonium bromide solution (equimolar to 1.1 mole of the diluted sodium hypochlorite solution, 10% excess on a molar basis) and ammonium chloride solution (equimolar to 1.1 mole of the diluted hypochlorite solution, 10% excess on a molar basis) were prepared. The diluted hypochlorite (50 ml) was added dropwise to 50 ml of the appropriate ammonium salt while the pH was constantly measured. The biofilm inhibiting substance concentration in the produced stock solution was immediately measured and the biofilm inhibiting substance at the appropriate feed level was immediately added to the test flasks.
# H2O2-degrading enzymes = test system: H2O2-degrading enzymes
# Protocol: (§1) The reaction pH was Maintained at 9.8-10.0. The Production process was controlled to ensure synchronous metering of the two chemicals, continuous mixing at the predetermined molar ratio and reproducible production of a stable biofilm inhibiting substance stock solution for the duration of the trial and longer. […] After 850 minutes the dosing rate was reduced to 85 g/ton expressed as total Cl2 by feeding the biofilm inhibiting substance semi-continuously. Various parameters were monitored during start-up of the trial: Residual biofilm inhibiting substance was measured (using a Hach pocket colorimeter, total Cl2, based on the DPD method adapted from Standard Methods for Examination of Waste and Waste Water). Residual hydrogen peroxide was measured using either LASA 20 with the LCW 085 method, based on the method of Jander/Blasius, Lehrbuch der Analytischen and Praparative Anorganischen Chemie, as described in the Handbook of Photometrical Operation Analysis by Dr. Lange for the LASA 20, October 1997 (in cases of high concentration), or Merck Test Strips (0.5-25 ppm). When necessary, samples were diluted with DI water.
# (§2) The activity of H2O2-degrading enzymes in the process water was measured according to the following procedure: a commercial solution of H2O2 was diluted with DI water to a final concentration of 100 g/l water (10%). One ml of the diluted H2O2 solution was added to 9 ml of a sample taken from the treated de-inking process water to form a final feed rate of 10 g/l H2O2. The combined sample was incubated at room temperature for 15 minutes, at which time residual H2O2 was measured. Hydrogen peroxide diluted in DI water served as a control. […] Adenosine triphosphate (ATP) measurements in Table 6 are based on the following process: during the change from ATP to Adenosine monophosphate (AMP) in the presence of luciferin and luciferase, a defined quantity of light is emitted per ATP molecule. This emitted light is measured by a photometer. The results are given in relative terms and are thus relative and not absolute (RLU=relative light unit). The values can be correlated with microbial activity in the sense that for high viable counts, a high ATP measurement is obtained, and vice versa.
# [2] = test system: planktonic microorganisms
# Protocol: as §1, §2
# [3] = time 100 min, continuous feed 170 g/ton as total Cl2
# [4] = time 240 min, continuous feed 170 g/ton as total Cl2
# [5] = time 850 min, continuous feed 170 g/ton as total Cl2
# [6] = time 1500 min, semi-continuous feed 85 g/ton as total Cl2 since 850 min
substance,measurement,setting,value
bromide activated chloramine [Fuzzicide BAC],state of coupons,[1]; after 2 days,remained clean
same,state of coupons,[1]; after 4 days,remained clean
same,control of planktonic microorganisms,"[1]; medium sample after four days, within detection limits",complete control of planktonic microorganisms
same,"Viable Counts After 2 Days, medium","[1]; planktonic cells in circulating medium, day 2, daily slug dose (Mixed Halogens 5 ppm, Fuzzicide BAC […] expressed as Cl2), 35° C.",1 × 10^6 cfu/ml
same,"Viable Counts After 4 Days, medium","[1]; planktonic cells in circulating medium, day 4, daily slug dose (Mixed Halogens 5 ppm, Fuzzicide BAC […] expressed as Cl2)",<100* cfu/ml
same,"Viable Counts After 2 Days, coupon surfaces","[1]; stainless steel coupons, day 2, daily slug dose (Mixed Halogens 5 ppm, Fuzzicide BAC […] expressed as Cl2)",<27* cfu/cm^2
same,"Viable Counts After 4 Days, coupon surfaces","[1]; stainless steel coupons, day 4, daily slug dose (Mixed Halogens 5 ppm, Fuzzicide BAC […] expressed as Cl2)",<27* Cfu/cm^2
same,"Residual H2O2 concentration, % of 3.5% g/l","catalase (Merck); BIS 8.1 ppm as total chlorine, catalase 26 units/ml, 60 min preincubation, 30 min after H2O2",21.4 % of 3.5% g/l
same,"Residual H2O2 concentration, % of 3.5% g/l","catalase (Merck); BIS 60 ppm as total chlorine, catalase 0 units/ml (no enzyme)",100 % of 3.5% g/l
same,"Residual H2O2 concentration, % of 3.5% g/l","catalase (Merck); BIS 60 ppm as total chlorine, catalase 26 units/ml",100 % of 3.5% g/l
same,"Residual H2O2 concentration, % of 3.5% g/l","catalase (Merck); BIS 140 ppm as total chlorine, catalase 26 units/ml",100 % of 3.5% g/l
same,"Reduction in Catalase Activity, as % of initial H2O2 concentration","H2O2-degrading enzymes; time 0 min (start of dosing, baseline), 10 g/l H2O2 added to sample, 15 min",37.6%
same,"Reduction in Catalase Activity, as % of initial H2O2 concentration",H2O2-degrading enzymes; [3],17.8%
same,"Reduction in Catalase Activity, as % of initial H2O2 concentration",H2O2-degrading enzymes; [4],54.7%
same,"Reduction in Catalase Activity, as % of initial H2O2 concentration",H2O2-degrading enzymes; [5],92%
same,"Reduction in Catalase Activity, as % of initial H2O2 concentration",H2O2-degrading enzymes; [6],135.1%
same,ATP (RLU),"[2]; time 0 min (start of dosing, baseline)",132276 RLU
same,ATP (RLU),[2]; [3],6340 RLU
same,ATP (RLU),[2]; [4],2861 RLU
same,ATP (RLU),[2]; [5],535 RLU
same,ATP (RLU),[2]; [6],3568 RLU

# Source: patent publication US8444858B2, “Control of development of biofilms in industrial process water” (A.Y. Laboratories Ltd., priority 2001, dated 2013)
